The values that follow come from patent publication US12702715B2, “Targeted RNA degradation allows precision repurposing of protein-targeted small molecule medicines to RNA” (University of Florida Research Foundation, Incorporated, priority 2020, dated 2026).

In series [1] the test system is MCF-10A cells. In words: Boyden chamber invasion assay, MCF-10A. The format is cell-based, human. As to conditions: for invasion phenotype of MCF-10A acquired by transfection of mutant pre-miR-21: 1 binding site ablated. On the procedure: Cell Culture. Cells were cultured at 37° C. and 5% CO2. MDA-MB-231 cells (HTB-26, ATCC) were cultured in RMPI 1640 medium with L-glutamine & 25 mM HEPES supplemented with 1× Antibiotic/Antimycotic solution (Corning) and 10% FBS. MCF-10A cells (CRL-10317, ATCC) were cultured in 1×DMEM/F12 50/50 with L-glutamine & 15 mM HEPES (Corning) supplemented with 20% FBS, 1× Antibiotic/Antimycotic solution, 20 ng/mL human epidermal growth factor (Pepro Tech, Inc.), 10 μg/mL insulin (Sigma-Aldrich), and […] hydrocortisone (Pfaltz & Bauer). For compound treatment, compound stocks either in DMSO or water were diluted in growth medium and added to cells for the indicated time. Plasmid DNA to overexpress pre-miR-21 in pcDNA 3.1 (Addgene 21114) or a plasmid DNA encoding the pre-miR-21 mutant (custom purchased from GenScript USA, Inc.) was transfected with jetPRIME per the manufacturer's protocol. After transfection, the medium was replaced with growth medium containing the compound of interest, prepared as described above. The RNase L-targeting siRNA or a control siRNA was transfected with Lipofectamine RNAiMAX reagent (Invitrogen) per the manufacturer's protocol.
Boyden Chamber Invasion Assay. MDA-MB-231 or MCF-10A cells (5×10^4) in serum free growth medium with or without compound treatment were seeded into hanging cell culture inserts (for 24-well plates) pre-coated with Matrigel. Complete growth medium was added to the bottom well. After 16-24 h, the medium was removed, and the hanging inserts were washed with 1×DPBS twice and then fixed with 4% paraformaldehyde in 1×DPBS at room temperature for 20 min. Then the inserts were washed twice with 1×DPBS and stained with 0.1% (w/v) crystal violet 1×DPBS for 20 min. The inserts were washed twice with nanopure water and once with 1×DPBS. Cells on the surface of the Matrigel (non-invasive) were removed with cotton swabs and invading cells were counted and imaged under a microscope.

For series [2], the system named is MDA-MB-231-Luc cells. The format is in vivo, mouse. The conditions noted are these: for pre-miR-21 levels in lung tissue: FISH; for pre-miR-21 levels in lung tissue / ERK levels in lung tissue / PDCD4 expression in lung tissue: 1 assessed after 12 days of dosing; for ERK levels in lung tissue / PDCD4 expression in lung tissue: IHC. From the text: In Vivo Studies to Assess Metastasis of Breast Cancer to the Lung. Female NOD/SCID mice (n=10; 5-7 weeks) were used for in vivo breast cancer metastasis studies as previously reported^6. Briefly, mice purchased from Jackson Laboratory were intravenously injected (tail vein) with MDA-MB-231-Luc cells (0.8×10^6 cells/mice). Luciferase activity was monitored every other day to determine when to initiate treatment [averaged luciferase signal from mice is ten times higher than the background as measured by LagoX (Spectral Instruments)]. After 5 days, the mice were split into three groups, with each group having the same luciferase signal. […]. After 30 days, lungs were harvested and immediately fixed in Bouin's solution (Sigma, HT10132-1L) for 24 h to image nodules. After counting the nodules, the fixed lungs were washed in 60 mL of 10% formalin solution four times over 48 h to remove Bouin's solution. Paraffin-embedded sections of the lungs were then generated by the Histology Core at Scripps Research Florida for further staining.
Lung Tissue Histology. All histological analyses were performed as previously reported^6. The slides were stained on a Leica BondMax Immunostaining platform by using a DAB refine kit. H&E staining and PDCD4, pERK and ERK IHC were performed by the Histology Core at Scripps Research Florida. All antibodies were used at a 1:100 dilution: anti-PDCD4 (Abcam, ab51495); anti-pERK (Cell Signaling Technology, 4370S); and ERK (Cell Signaling Technology, 9102S). The primary antibodies were detected using a DAB Substrate Kit (Vector Laboratories, Inc.) per the manufacturer's protocol.
To visualize miR-21 and pre-miR-21 by fluorescence in situ hybridization (FISH), the paraffin-embedded sections were incubated at 56° C. overnight and cleaned with xylene three times, followed by washing with serially diluted concentrations of ethanol (100%, 95%, 90%, and 85%). The slides were then washed with MilliQ water three times and immersed in 0.3% (v/v) H2O2 for 30 min at room temperature. The slides were then washed with MilliQ water three times and digested with proteinase K (QIAGEN) at 37° C. for 15 min. After washing three times with MilliQ water, the slides were dehydrated with 95% ethanol and air-dried completely at room temperature. The slides were then hybridized with FITC-labeled LNA probes^6 complementary to mature ([…]*/36-FAM SEQ ID NO: 16) or pre-miR-21 ([…]/36-FAM SEQ ID NO: 17) at […] overnight. After hybridization, the slides were washed with 2×SSC (saline sodium citrate buffer) three times and then 1×DPBS three times, all at room temperature. The slides were then incubated with an anti-FITC horseradish peroxidase-conjugated antibody (Abcam) for 2 h at room temperature. The slides were washed with 1×TBST three times.
After staining of interest was completed, the slides were dehydrated, cover-slipped with Cytoseal 60, and imaged with a Leica DM13000 B upright fluorescent microscope.

“Also recorded” adds a separate entry of the source.

On to `CCOC(=O)C1=C(Nc2ccccc2)S/C(=C\c2ccc(OCCOCCOCCOCCNC(=O)NCCN3CCN(c4ccc5[nH]c(-c6c(N)c7c(F)cccc7[nH]c6=O)nc5c4)CC3)c(O)c2)C1=O` [Compound 2, Ribotac-Dovitinib], for which the “invasion phenotype of MCF-10A acquired by transfection of mutant pre-miR-21” value in series [1] is “had no effect; also recorded: unable to rescue”. In addition, the “weight change of NOD/Scid mice” value in series [2] (56 mg/kg q.o.d., over 38 days) is “did not cause significant changes in weight”. Besides, in series [2], the “pre-miR-21 levels in lung tissue” value is on record as “significantly diminished”, the “ERK levels in lung tissue” value was “had no effect” and the “PDCD4 expression in lung tissue” value is “derepressed”. For the same compound, in series [2] (mouse, in vivo), the “hematoxylin and eosin (HE) staining of lung” value was “decrease”.
For `CN1CCN(c2ccc3nc(-c4c(N)c5c(F)cccc5[nH]c4=O)[nH]c3c2)CC1` [Compound 1, Dovitinib, reference compound], in series [1], the “invasion phenotype of MCF-10A acquired by transfection of wild type pre-miR-21” value is reported as “reverted this phenotype; also recorded: inhibited” and the “invasion phenotype of MCF-10A acquired by transfection of mutant pre-miR-21” value is on record as “insensitive”. Further, the “invasive nature of MCF-10A cells” value in series [1] (no overexpression) is “had no effect”. Moreover, in series [2], the “pre-miR-21 levels in lung tissue” value is given as “did not affect”, the “ERK levels in lung tissue” value is “did not affect” and the “PDCD4 expression in lung tissue” value is “did not affect”.
